The values that follow come from ChEMBL document CHEMBL3132769, “Fragment growing to retain or alter the selectivity of anchored kinase hinge-binding fragments” (Medchemcomm, 2014).

SMILES strings stand for the structures.

The target of experiment [1] is Calcium/calmodulin-dependent protein kinase type II subunit beta (Homo sapiens) (UniProt Q13554). Kind of experiment: Inhibition of human CAMK2 beta catalytic domain expressed in baculovirus assessed as substrate phosphorylation using fluorescence-labelled peptides as substrate at 2 uM after 90 mins by microfluidic peptide phosphorylation assay.
Experiment [2] has as its target Ribosomal protein S6 kinase alpha-4 (Homo sapiens) (UniProt O75676). Put plainly: Inhibition of human full length MSK2 expressed in baculovirus assessed as substrate phosphorylation using fluorescence-labelled peptides as substrate at 0.1 uM after 90 mins by microfluidic peptide phosphorylation assay.
In experiment [3] the target is Protein kinase C theta type (Homo sapiens) (UniProt Q04759). Kind of experiment: Inhibition of human truncated PKC theta expressed in baculovirus assessed as substrate phosphorylation using fluorescence-labelled peptides as substrate at 0.06 uM after 90 mins by microfluidic peptide phosphorylation assay.
Experiment [4] addresses Dual specificity tyrosine-phosphorylation-regulated kinase 1A (Rattus norvegicus) (UniProt Q63470). Kind of experiment: Inhibition of rat full length DYRK1a expressed in Escherichia coli cell assessed as substrate phosphorylation using fluorescence-labelled peptides as substrate at 0.06 uM after 90 mins by microfluidic peptide phosphorylation assay.
The subject of experiment [5] is Tyrosine-protein kinase ABL1 (Homo sapiens), P00519 [Q252H]. Put plainly: Inhibition of human truncated ABL Q252H mutant expressed in baculovirus assessed as substrate phosphorylation using fluorescence-labelled peptides as substrate at 0.06 uM after 90 mins by microfluidic peptide phosphorylation assay.
The target in experiment [6] is Calcium/calmodulin-dependent protein kinase type II subunit delta (Homo sapiens) (UniProt Q13557). Kind of experiment: Inhibition of human full length CAMK2D expressed in baculovirus assessed as substrate phosphorylation using fluorescence-labelled peptides as substrate at 0.06 uM after 90 mins by microfluidic peptide phosphorylation assay.
Experiment [7] concerns the target Tyrosine-protein kinase ABL2 (Homo sapiens) (UniProt P42684). Put plainly: Inhibition of human truncated Arg expressed in baculovirus assessed as substrate phosphorylation using fluorescence-labelled peptides as substrate at 95 uM after 90 mins by microfluidic peptide phosphorylation assay.
Experiment [8] deals with Protein kinase C beta type (Homo sapiens) (UniProt P05771). Kind of experiment: Inhibition of human full length PKC beta2 expressed in baculovirus assessed as substrate phosphorylation using fluorescence-labelled peptides as substrate at 8 uM after 90 mins by microfluidic peptide phosphorylation assay.
For experiment [9], the target named is T1, Testis-specific serine/threonine-protein kinase 2 (Homo sapiens) (UniProt Q96PF2).
T1 sequence (whole entry): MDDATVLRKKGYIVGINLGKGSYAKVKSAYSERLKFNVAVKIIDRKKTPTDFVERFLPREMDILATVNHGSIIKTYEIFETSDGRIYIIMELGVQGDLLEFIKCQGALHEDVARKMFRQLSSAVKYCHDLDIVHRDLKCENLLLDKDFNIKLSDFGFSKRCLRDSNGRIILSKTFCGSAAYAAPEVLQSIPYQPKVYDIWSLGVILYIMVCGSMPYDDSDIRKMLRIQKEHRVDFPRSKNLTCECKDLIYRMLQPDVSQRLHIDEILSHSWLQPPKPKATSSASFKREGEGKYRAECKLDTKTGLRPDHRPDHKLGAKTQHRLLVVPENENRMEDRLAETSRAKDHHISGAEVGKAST
Put plainly: Inhibition of human full length TSSK2 expressed in baculovirus assessed as substrate phosphorylation using fluorescence-labelled peptides as substrate at 8 uM after 90 mins by microfluidic peptide phosphorylation assay.

For experiment [10], the target named is Dual specificity tyrosine-phosphorylation-regulated kinase 1A (Rattus norvegicus) (UniProt Q63470). Kind of experiment: Inhibition of rat full length DYRK1a expressed in Escherichia coli cell assessed as substrate phosphorylation using fluorescence-labelled peptides as substrate at 8 uM after 90 mins by microfluidic peptide phosphorylation assay.
The target in experiment [11] is Serine/threonine-protein kinase MARK2 (Homo sapiens) (UniProt Q7KZI7). Kind of experiment: Inhibition of human full length MARK2 expressed in baculovirus assessed as substrate phosphorylation using fluorescence-labelled peptides as substrate at 70 uM after 90 mins by microfluidic peptide phosphorylation assay.
Experiment [12] concerns the target Insulin receptor (Homo sapiens) (UniProt P06213). Kind of experiment: Inhibition of human INSR catalytic domain expressed in baculovirus assessed as substrate phosphorylation using fluorescence-labelled peptides as substrate at […] after 90 mins by microfluidic peptide phosphorylation assay.
For experiment [13], the target named is Hepatocyte growth factor receptor (Homo sapiens) (UniProt P08581). Kind of experiment: Inhibition of human MET cytoplasmic domain expressed in baculovirus assessed as substrate phosphorylation using fluorescence-labelled peptides as substrate at […] after 90 mins by microfluidic peptide phosphorylation assay.
For experiment [14], the target named is T2, Serine/threonine-protein kinase 3 (Homo sapiens) (UniProt Q13188).
T2 sequence (whole entry): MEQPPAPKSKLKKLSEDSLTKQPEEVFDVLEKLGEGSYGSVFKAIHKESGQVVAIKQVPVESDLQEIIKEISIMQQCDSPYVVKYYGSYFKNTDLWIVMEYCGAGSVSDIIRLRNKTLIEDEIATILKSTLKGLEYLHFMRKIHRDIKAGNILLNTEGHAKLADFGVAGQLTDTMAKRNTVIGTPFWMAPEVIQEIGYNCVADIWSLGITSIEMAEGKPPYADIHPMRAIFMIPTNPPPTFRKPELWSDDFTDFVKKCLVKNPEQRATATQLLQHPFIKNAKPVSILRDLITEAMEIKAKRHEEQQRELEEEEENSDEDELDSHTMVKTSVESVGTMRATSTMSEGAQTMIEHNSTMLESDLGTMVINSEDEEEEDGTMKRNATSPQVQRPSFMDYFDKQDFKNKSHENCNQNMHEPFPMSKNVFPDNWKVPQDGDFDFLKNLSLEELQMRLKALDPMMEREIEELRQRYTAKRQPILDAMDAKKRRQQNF
Kind of experiment: Inhibition of human full length MST2 expressed in baculovirus assessed as substrate phosphorylation using fluorescence-labelled peptides as substrate at 420 uM after 90 mins by microfluidic peptide phosphorylation assay.

Experiment [15] deals with T3, Serine/threonine-protein kinase Sgk2 (Homo sapiens) (UniProt Q9HBY8).
T3 sequence (whole entry): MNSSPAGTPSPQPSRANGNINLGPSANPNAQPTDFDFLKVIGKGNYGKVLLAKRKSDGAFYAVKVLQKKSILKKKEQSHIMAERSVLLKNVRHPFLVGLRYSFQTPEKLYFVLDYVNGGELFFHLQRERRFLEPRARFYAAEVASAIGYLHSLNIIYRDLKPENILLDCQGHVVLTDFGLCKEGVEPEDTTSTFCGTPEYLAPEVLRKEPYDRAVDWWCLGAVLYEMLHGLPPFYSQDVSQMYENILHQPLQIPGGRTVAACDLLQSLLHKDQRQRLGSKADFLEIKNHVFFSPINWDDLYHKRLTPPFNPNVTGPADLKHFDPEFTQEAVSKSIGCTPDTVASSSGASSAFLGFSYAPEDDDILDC
Kind of experiment: Inhibition of human full length SGK2 expressed in baculovirus assessed as substrate phosphorylation using fluorescence-labelled peptides as substrate at 1000 uM after 90 mins by microfluidic peptide phosphorylation assay.

In experiment [16] the target is Rho-associated protein kinase 2 (Homo sapiens) (UniProt O75116). Put plainly: Inhibition of human ROCK2 catalytic domain expressed in baculovirus assessed as substrate phosphorylation using fluorescence-labelled peptides as substrate at 1000 uM after 90 mins by microfluidic peptide phosphorylation assay.

Sequence of Protein kinase C theta type (Homo sapiens) (Q04759 whole entry, looked up, the tested form may be a part): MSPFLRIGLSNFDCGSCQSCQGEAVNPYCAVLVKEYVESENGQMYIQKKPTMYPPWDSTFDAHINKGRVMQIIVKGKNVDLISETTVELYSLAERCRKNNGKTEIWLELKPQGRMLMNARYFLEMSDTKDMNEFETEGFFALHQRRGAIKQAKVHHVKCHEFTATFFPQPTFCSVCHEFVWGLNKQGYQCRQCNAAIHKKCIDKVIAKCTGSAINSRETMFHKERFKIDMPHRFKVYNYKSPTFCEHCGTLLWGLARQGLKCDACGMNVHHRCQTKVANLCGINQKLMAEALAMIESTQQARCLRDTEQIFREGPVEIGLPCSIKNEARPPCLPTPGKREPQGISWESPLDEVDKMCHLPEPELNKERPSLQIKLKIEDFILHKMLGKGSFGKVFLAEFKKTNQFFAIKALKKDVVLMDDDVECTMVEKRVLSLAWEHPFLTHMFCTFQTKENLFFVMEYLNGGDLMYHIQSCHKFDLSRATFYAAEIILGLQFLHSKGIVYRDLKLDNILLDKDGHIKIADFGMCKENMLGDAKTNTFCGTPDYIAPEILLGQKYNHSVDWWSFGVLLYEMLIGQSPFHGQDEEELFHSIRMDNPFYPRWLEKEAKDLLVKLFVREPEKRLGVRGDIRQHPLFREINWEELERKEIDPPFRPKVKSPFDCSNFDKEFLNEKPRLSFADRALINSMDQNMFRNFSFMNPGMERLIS
Sequence of Protein kinase C beta type (Homo sapiens) (P05771 2-671 limits assumed): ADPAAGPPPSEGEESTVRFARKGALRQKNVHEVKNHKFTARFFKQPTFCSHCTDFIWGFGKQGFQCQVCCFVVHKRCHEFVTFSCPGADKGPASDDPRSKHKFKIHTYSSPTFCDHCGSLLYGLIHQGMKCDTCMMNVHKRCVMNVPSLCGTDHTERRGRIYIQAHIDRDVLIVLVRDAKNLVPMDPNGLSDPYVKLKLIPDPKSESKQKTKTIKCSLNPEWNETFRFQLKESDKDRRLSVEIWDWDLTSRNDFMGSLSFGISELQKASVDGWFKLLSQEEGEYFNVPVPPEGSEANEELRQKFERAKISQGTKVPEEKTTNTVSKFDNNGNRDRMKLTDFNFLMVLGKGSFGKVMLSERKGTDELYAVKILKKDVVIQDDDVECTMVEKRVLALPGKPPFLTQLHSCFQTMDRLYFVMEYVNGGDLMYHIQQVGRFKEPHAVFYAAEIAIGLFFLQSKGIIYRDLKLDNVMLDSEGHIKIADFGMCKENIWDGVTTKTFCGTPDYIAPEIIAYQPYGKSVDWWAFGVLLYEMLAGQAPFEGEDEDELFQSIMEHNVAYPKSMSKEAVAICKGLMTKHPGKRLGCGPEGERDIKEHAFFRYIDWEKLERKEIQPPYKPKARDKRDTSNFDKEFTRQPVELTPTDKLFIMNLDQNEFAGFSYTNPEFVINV
Sequence of Calcium/calmodulin-dependent protein kinase type II subunit beta (Homo sapiens) (Q13554 whole entry, the tested form may be a part): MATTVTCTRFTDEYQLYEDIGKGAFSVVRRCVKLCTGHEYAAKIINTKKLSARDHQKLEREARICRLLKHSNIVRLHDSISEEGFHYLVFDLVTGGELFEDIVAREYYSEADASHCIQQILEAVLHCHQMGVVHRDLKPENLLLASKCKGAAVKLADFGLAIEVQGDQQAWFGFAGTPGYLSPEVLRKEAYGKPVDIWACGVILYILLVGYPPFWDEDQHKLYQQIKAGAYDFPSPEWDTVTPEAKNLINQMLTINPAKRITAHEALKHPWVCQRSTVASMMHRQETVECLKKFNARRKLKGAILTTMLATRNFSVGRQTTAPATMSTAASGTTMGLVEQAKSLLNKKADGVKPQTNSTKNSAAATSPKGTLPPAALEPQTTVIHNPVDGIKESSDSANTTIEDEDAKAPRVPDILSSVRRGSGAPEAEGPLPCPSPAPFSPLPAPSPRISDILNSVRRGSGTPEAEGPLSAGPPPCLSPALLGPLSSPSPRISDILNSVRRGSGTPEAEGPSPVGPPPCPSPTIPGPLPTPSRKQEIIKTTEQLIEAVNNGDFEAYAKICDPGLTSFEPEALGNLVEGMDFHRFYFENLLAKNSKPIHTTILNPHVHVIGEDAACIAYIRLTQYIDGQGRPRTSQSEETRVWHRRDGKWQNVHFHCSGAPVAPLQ
Sequence of Tyrosine-protein kinase ABL2 (Homo sapiens) (P42684 whole entry, the tested form may be a part): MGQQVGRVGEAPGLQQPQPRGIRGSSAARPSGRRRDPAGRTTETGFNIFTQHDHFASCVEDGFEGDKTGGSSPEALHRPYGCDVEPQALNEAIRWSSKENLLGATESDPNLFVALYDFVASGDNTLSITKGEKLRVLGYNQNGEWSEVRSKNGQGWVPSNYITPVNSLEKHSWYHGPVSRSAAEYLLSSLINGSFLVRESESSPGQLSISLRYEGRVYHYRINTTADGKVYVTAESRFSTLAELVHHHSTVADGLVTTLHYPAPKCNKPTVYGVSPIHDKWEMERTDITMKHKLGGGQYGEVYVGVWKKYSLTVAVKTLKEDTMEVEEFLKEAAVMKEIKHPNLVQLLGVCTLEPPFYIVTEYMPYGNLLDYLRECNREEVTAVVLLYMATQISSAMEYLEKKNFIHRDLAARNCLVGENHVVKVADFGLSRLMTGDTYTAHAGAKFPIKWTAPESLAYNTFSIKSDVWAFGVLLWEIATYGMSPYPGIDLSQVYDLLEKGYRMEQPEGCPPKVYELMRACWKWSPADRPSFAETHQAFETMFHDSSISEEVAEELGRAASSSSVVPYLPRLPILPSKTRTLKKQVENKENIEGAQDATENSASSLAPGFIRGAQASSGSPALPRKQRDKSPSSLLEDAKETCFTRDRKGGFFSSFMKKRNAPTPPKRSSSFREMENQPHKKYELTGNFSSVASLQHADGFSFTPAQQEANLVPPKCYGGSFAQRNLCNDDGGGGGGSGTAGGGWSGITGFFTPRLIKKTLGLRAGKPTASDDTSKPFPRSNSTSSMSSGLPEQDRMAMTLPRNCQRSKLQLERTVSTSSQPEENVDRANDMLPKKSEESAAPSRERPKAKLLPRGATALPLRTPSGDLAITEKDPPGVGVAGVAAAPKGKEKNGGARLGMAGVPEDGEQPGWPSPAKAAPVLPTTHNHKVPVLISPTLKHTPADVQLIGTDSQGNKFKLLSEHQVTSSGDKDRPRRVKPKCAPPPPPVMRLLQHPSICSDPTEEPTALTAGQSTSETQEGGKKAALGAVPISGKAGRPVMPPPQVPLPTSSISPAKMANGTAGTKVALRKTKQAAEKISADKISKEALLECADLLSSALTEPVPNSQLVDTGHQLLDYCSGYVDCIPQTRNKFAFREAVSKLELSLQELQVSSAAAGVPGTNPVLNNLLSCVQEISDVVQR
Sequence of Ribosomal protein S6 kinase alpha-4 (Homo sapiens) (O75676 whole entry, looked up, the tested form may be a part): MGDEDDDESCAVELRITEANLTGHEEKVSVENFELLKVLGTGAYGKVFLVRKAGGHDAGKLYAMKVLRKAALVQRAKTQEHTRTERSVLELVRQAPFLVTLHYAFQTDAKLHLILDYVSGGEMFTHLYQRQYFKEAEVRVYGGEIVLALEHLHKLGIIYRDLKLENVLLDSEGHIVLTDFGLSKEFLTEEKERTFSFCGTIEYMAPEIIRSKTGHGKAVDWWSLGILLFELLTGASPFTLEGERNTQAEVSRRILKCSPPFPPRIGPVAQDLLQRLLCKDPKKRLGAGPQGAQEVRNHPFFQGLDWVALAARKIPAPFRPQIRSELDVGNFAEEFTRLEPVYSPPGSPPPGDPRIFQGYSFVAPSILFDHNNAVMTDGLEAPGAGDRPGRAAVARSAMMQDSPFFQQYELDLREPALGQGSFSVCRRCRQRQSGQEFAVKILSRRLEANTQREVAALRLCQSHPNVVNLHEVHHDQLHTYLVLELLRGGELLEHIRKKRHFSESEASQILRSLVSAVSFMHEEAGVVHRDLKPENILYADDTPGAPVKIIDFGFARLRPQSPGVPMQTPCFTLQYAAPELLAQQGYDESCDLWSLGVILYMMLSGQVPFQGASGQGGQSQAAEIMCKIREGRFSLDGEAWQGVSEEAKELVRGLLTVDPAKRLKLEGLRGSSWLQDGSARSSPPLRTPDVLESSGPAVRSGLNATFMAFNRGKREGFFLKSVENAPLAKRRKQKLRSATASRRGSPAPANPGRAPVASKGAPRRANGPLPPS
Sequence of Calcium/calmodulin-dependent protein kinase type II subunit delta (Homo sapiens) (Q13557 whole entry, the tested form may be a part): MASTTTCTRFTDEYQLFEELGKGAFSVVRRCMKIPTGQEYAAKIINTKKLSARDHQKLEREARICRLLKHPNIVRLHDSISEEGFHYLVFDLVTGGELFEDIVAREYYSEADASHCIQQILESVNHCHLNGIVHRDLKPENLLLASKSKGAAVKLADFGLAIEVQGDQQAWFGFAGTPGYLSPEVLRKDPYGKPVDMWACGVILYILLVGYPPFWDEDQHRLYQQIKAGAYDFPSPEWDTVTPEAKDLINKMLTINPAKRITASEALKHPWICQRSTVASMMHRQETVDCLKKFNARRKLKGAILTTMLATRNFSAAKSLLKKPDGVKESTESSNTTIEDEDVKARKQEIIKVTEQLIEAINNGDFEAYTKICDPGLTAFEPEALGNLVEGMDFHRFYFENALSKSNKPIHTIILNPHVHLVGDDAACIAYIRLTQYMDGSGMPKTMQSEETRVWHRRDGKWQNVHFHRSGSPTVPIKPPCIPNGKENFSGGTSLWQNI

On to `NC1CCN(c2ncnc3[nH]ccc23)CC1`, for which, in [1], the inhibition was 25.5%.

Consider `C[C@H](CN(C)C)Oc1nc(Nc2cc3cccc(Cl)c3cn2)cnc1C#N`, for which the inhibition in experiment [2] is 13.5%.

Take `NC1(Cc2ccc(Cl)cc2)CCN(c2ncnc3[nH]ccc23)CC1`: the inhibition in experiment [3] came to 4.5%; in experiment [4], 0%; in experiment [5], 0%; in [6], 0%.

`NCCc1ccc(-c2ncnc3[nH]cnc23)cc1`: in experiment [7], the inhibition was determined as 50.5%.

As for `NCC1CCN(c2ncnc3[nH]ccc23)CC1`, the inhibition amounted to 88.5% in [8], 23.5% in experiment [9] and 54% in experiment [10].

Turning to `CNCc1ccc(-c2ncnc3[nH]cnc23)cc1`, the inhibition in [11] is 61%.

Take `COC(=O)c1cnc(Nc2cnc(C#N)cn2)cc1NCC1CCNCC1`: the inhibition in experiment [12] is 7%; in experiment [13], 2.5%.

As for `c1nc(N2CCOCC2)c2nc[nH]c2n1`, the inhibition in [14] is 99%.

As to `c1cnc2[nH]ccc2c1`, the inhibition in experiment [15] was found to be 64%; in [16], 99.5%.
